Experiments:
P. yoelii = assay: Mouse 4-day suppressive test vs P. yoelii; format: in vivo; details: Plasmodium yoelii, P. yoelii YM strain, 7 oral doses in 4 days, CD1 mice, parasitaemia day 5
Procedure: 2. In vivo Activity vs. P.yoelii in the Mouse
In vivo activity was determined using the modified 4-day suppressive test involving an infection of the YM strain of P.yoelii by 3×10^6 parasitized erythrocytes/ml and 7 oral doses given in 4 days in CD1 mice. Drugs were formulated by ball milling overnight in 0.25% celacol with stainless steel balls to form a fine particle suspension. The total requirement was formulated at the beginning of a test and thereafter stored at 4° C. On the morning of day 5 smears of tail blood were prepared from each mouse, the parasitaemias counted and the inhibition as compared to control animals calculated. Data were analysed to yield ED50 values by the best fit to a sigmoidal dose response curve, and the results are presented in Table 2 below.

Plasmodium falciparum = assay: In vitro activity vs. Plasmodium falciparum (modified semi-automated microdilution technique of Desjardins et al, [3H]-hypoxanthine); format: cell-based; details: Erythrocyte, human erythrocytes, RPMI 1640 + 10% human plasma, 37° C, number of tests in parentheses in own column
Procedure: 1. In vitro Activity vs. Plasmodium falciparum The in vitro activity of the test compounds was determined using a modification of the semi-automated microdilution technique of Desjardins et al (1979). Initial dilutions were prepared from 1/100th molecular weight (in mg) of the compounds dissolved in dry ethanol, with the first 1:100 dilution being in ethanol and subsequent dilutions in RPMI 1640 medium supplemented with 10% v/v human plasma. Serial 1:2 drug dilutions were prepared in microtitration trays using microdiluters, each dilution being set up in triplicate. To this was added RPMI 1640 medium supplemented with 10% v/v human plasma, fresh and infected type A Rhesus positive human erythrocytes to yield a haematocrit of 3% and a parasitaemia of 0.25-0.5%. [^3 H]-hypoxanthine was added to give a final concentration of 12.5-16 μCi/ml of culture. The plates were sealed and incubated in a modular incubator in a gas mixture of 5% O2; 3% CO2 and 92% N2 by volume at 37° C. The test was completed as described by Desjardins et at (1979). Data were analysed to yield IC50 values by best fit to a sigmoidal dose-response curve.

SMILES | ED50 (P. yoelii) [mg/kg] | IC50 (Plasmodium falciparum) [nM]
Cc1[nH]c(C)c(-c2ccc(Oc3ccc(Cl)cc3)cc2)c(=O)c1Cl [Example 3, 3-Chloro-5-(4-(4-chlorophenoxy)phenyl)-2,6-dimethylpyridin-4(1H)-one] | 1.6 | 1400
Cc1[nH]c(C)c(-c2ccc(-c3ccc(Cl)cc3)cc2)c(=O)c1Cl [Example 8, 3-Chloro-5-(4'-chloro-4-biphenylyl)-2,6-dimethylpyridin-4(1H)-one] | 0.6 | 500
Cc1[nH]c(C)c(-c2ccc(Oc3ccc([S+](C)[O-])cc3)cc2)c(=O)c1Br (stereo not drawn) [Example 16, 3-Bromo-2,6-dimethyl-5-(4-(4-methylsulphinylphenoxy)phenyl)pyridin-4(1H)-one] |  | 1600
Cc1cc(=O)c(-c2ccc(Oc3ccc(Cl)cc3)cc2)c(C)[nH]1 [Example 1, 3-(4-(4-Chlorophenoxy)phenyl)-2,6-dimethylpyridin-4(1H)-one] | 2.5 | 2500
Cc1[nH]c(C)c(-c2ccc(Oc3ccc(C(F)(F)F)cc3)cc2)c(=O)c1Br [Example 5, 3-Bromo-5-(4-(4-trifluoromethylphenoxy)phenyl)-2,6-dimethylpyridin-4(1H)-one] | 0.26 | 220
Cc1c(Br)c(=O)c(-c2ccc(Cl)cc2)c(C)n1C [Example 12, 3-Bromo-5-(4-Chlorophenyl)-1,2,6-trimethylpyridin-4-one] | 16.4 | 23500
Cc1cc(=O)c(-c2ccc(Oc3ccc(C(F)(F)F)cc3)cc2)c(C)[nH]1 [Example 4, 3-(4-(4-Trifluoromethylphenoxy)phenyl)-2,6-dimethylpyridin-4(1H)-one] | 1.25 | 1100
Cc1[nH]c(C)c(-c2ccc(Oc3ccc(OC(F)(F)F)cc3)cc2)c(=O)c1Br [Example 14, 3-Bromo-5-(4-(4-trifluoromethoxyphenoxy)phenyl)-2,6-dimethylpyridin-4(1H)-one] | 0.34 | 23
Cc1[nH]c(C)c(-c2ccc(-c3ccc(Cl)cc3)cc2)c(=O)c1Br [Example 7, 3-Bromo-5-(4'-chloro-4-biphenylyl)-2,6-dimethylpyridin-4(1H)-one] | 1.4 | 2000
CCCCCCCCc1c(C)[nH]c(C)c(C#N)c1=O [Example 10, 5-Cyano-2,6-dimethyl-3-octylpyridin-4(1H)-one] |  | 2300
Cc1cc(=O)c(-c2ccc(-c3ccc(Cl)cc3)cc2)c(C)[nH]1 [Example 6, 3-(4'-Chloro-4-biphenylyl)-2,6-dimethylpyridin-4(1H)-one] | 1.6 | 8400
Cc1[nH]c(C)c(-c2ccc(Oc3ccc(Cl)cc3)cc2)c(=O)c1Br [Example 2, 3-Bromo-5-[4-(4-chlorophenoxy)phenyl]-2,6-dimethylpyridin-4(1H)-one] | 0.7 | 200
Cc1[nH]c(C)c(-c2ccc(Oc3ccc(OC(F)(F)F)cc3)cc2)c(=O)c1Cl [Example 15, 3-Chloro-5-(4-(4-trifluoromethoxyphenoxy)phenyl)-2,6-dimethylpyridin-4(1H)-one] | 0.19 | 20

From patent publication US5403934A, “Heterocyclic compounds” (Burroughs Wellcome Co., priority 1990, dated 1995)
